# Patent US20170266133A1 (priority 2014, published 2017)
# Legend:
# NE transporters (NET) = NE transporters (NET) (Homo sapiens, UniProt P23975); experiment: norepinephrine uptake inhibition; type: biochemical
# Excerpt: (§1) Dasotraline [(1R,4S)-4-(3,4-Dichlorophenyl)-1,2,3,4-tetrahydronaphthalen-1-amine] is a novel compound with DNRI pharmacology.
# [1] = tested on: healthy recreational stimulant users; experiment: single-dose crossover abuse potential study in recreational stimulant users; type: in vivo, human
# Excerpt: A single-dose, randomized, double-blind, double-dummy, placebo- and active-controlled crossover study with 6 treatment visits per subject was undertaken. […] Subjects participated in a medical screening visit (Visit 1), one 4-day inpatient qualification phase (Visit 2), a treatment phase (Visits 3 to 8) consisting of six 5-day inpatient treatment visits, and a safety follow-up visit (Visit 9). Within 21 days of the screening visit, subjects were enrolled and attended a qualification phase in which they received either 60 mg methylphenidate or matching placebo in a randomized double-blind crossover manner. Dosing times were separated by approximately 24 hours to ensure that subjects could discriminate and show positive effects of the positive control.
# Healthy female and male subjects aged 18 to 55 years (inclusive), who were recreational central nervous system (CNS) stimulant users with cocaine experience and who had passed the methylphenidate qualification phase, were randomized into the treatment.
# Drug administration occurred on Day 1 of each treatment visit followed by pharmacodynamic (PD), pharmacokinetic (PK), and safety assessments conducted for up to 72 hours post-dose. […] Subjects were randomized to one of 6 treatment sequences according to a 6×6 William square design. The capsules received at each treatment visit (Visits 3 to 8) were identical. Serial pharmacodynamic and pharmacokinetic evaluations were taken at each treatment visit. pharmacokinetic analysis was performed for dasotraline. Safety monitoring included regular assessments of vital signs, clinical laboratory tests, and adverse events (AEs), as well as continuous telemetry monitoring for at least 12 hours post-dose. Treatment visits were separated by a washout interval of at least 21 days (from the day of dosing). Subjects returned for the safety follow-up visit within approximately 14 days following the end of the last treatment visit.
# clinical [2] = type: in vivo, human
# Protocol: Upon oral administration, methylphenidate is rapidly and completely absorbed from the gastrointestinal tract. Peak concentrations occur 1 to 2 hours after dose administration. […] When methylphenidate and cocaine are administered intravenously, their pharmacokinetics are quite similar—the percentage of each drug taken up by the brain and their rates of uptake are parallel, although the clearance from the brain of cocaine is faster than that of methylphenidate. The receptor-binding affinities for cocaine and methylphenidate are similar at the dopamine transporter in the basal ganglia and the striatum. […] Thus it appears that abuse may be related to a rapid surge in dopamine levels in the striatum. […] The consequence of the slow increase in dopamine is the absence of a “high”, and the consequence of the long T1/2 is that, following daily dosing, serum concentration gradually increases to a steady state over the course of about 7 days.
# adults with ADHD [3] = experiment: Phase 2 study in adults with ADHD, efficacy (ADHD RS-IV, CGI-S, WRAADDS, cognition); type: in vivo, human
# Protocol: (§2) The study consisted of 3 periods including Screening, Treatment, and Washout/Follow-up, as described below. Efficacy was evaluated using the ADHD Rating Scale Version IV (ADHD RS-IV) with adult prompts. Effects on cognition were evaluated using the […]. Safety and tolerability were monitored throughout the study by collection of physical examinations, 12-lead electrocardiograms (ECG), vital signs, adverse events (AEs), hematology, blood chemistry, urinalysis, Insomnia Severity Index (ISI), and Columbia-Suicide Severity Rating Scale (C-SSRS).
# (§3) Subjects self-administered the study drug at home on Days 1 through 28, at approximately the same time each night. After Day 1 subjects returned to the clinic on Days 8, 15, 22, and 29. Beginning at Day 1 and at every visit during the treatment period, the ADHD RS-IV, Wender-Reimherr Adult Attention Deficit Disorder Scale (WRAADDS), and clinical global impression—severity (CGI-S) were completed. The clinical data repository system was administered at Baseline, and Days 15 and 29.
# (§4) At Days 36 and 43, subjects returned to the clinic and the ADHD RS-IV, WRAADDS, and CGI-S were completed. The clinical data repository system was completed on Day 43.
# clinical [4] = conditions: human, in vivo, 8 mg
# clinical [5] = type: in vivo, human; conditions: for steady-state concentration: predicted for longer-term administration from weeks 1-4
# Protocol: as §2, §3, §4
# From the measurements of serum concentration at 1, 2, 3, and 4 weeks, one can graph a predicted serum concentration on longer-term administration.
# [6] = tested on: norepinephrine transporters; experiment: circulating DHPG levels; type: in vivo, human; conditions: 8 mg/d
# DAT sites = target: T1, DAT sites (Homo sapiens, UniProt Q01959); experiment: DAT site occupancy versus serum concentration (other studies, not shown); conditions: in vivo
# T1 construct: from tissue; host or cells: in vivo occupancy
# [7] = target: human DA transporters (DAT) (Homo sapiens, UniProt Q01959); experiment: dopamine uptake inhibition; type: biochemical
# Excerpt: as §1
# adults with ADHD [8] = type: in vivo, human
# Protocol: as §2, §3, §4
# [9] = cited from earlier work
# [10] = 8 mg once daily, all assessment weeks
# [11] = methylphenidate 40 mg and 80 mg, single dose
# Sequence of NE transporters (NET) (P23975 whole entry): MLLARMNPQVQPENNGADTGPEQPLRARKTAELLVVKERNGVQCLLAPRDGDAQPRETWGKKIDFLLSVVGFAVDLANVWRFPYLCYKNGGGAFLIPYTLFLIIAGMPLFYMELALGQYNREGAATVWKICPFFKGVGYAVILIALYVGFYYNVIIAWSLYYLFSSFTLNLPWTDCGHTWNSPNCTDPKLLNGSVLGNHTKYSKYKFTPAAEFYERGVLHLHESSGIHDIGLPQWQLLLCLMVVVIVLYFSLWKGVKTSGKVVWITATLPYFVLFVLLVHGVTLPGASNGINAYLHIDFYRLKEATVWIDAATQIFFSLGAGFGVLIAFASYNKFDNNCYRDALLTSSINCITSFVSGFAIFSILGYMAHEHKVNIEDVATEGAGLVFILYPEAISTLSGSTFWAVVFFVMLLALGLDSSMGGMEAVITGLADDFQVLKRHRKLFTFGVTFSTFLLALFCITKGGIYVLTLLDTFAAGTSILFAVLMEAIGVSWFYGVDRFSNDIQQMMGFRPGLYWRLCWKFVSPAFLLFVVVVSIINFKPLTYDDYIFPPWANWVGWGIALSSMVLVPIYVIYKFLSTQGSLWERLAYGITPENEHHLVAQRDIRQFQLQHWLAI
# Sequence of human DA transporters (DAT) (Q01959 whole entry): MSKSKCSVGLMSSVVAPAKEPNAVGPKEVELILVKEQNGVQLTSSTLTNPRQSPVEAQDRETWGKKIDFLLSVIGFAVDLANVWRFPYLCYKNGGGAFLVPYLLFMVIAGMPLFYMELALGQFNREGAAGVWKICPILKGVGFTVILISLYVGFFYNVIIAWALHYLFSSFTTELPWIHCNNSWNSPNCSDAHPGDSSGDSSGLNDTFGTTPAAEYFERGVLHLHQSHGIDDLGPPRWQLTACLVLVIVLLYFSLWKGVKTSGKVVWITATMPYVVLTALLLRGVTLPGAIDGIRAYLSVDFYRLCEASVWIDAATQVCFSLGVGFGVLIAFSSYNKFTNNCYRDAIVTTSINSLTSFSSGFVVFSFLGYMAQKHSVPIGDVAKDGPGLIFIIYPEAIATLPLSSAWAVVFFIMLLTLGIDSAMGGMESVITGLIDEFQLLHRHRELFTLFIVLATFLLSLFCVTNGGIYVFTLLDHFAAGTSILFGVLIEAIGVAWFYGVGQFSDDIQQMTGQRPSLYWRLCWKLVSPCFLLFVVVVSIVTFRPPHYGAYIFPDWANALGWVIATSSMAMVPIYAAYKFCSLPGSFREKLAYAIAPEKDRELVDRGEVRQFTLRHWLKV
# T1 sequence (Q01959 whole entry): as above
smiles,measurement,setting,value
"N[C@@H]1CC[C@@H](c2ccc(Cl)c(Cl)c2)c2ccccc21 [dasotraline, (1R,4S)-4-(3,4-Dichlorophenyl)-1,2,3,4-tetrahydronaphthalen-1-amine]",IC50,NE transporters (NET),4 nM
same,differences from placebo on pharmacodynamic endpoints,[1]; 16 mg single dose,very few statistically significant differences from placebo
same,effects on most pharmacodynamic endpoints versus placebo,"[1]; dasotraline 8, 16 and 36 mg, single dose",not significantly different from those of placebo
same,time to steady state serum concentration,clinical [2]; daily dosing,about 7 days
same,Tmax,"clinical [2]; human, in vivo, po",10 to 12 h
same,half-life,"clinical [2]; human, in vivo, read-out: serum half-life (t1/2)",47 to 77 h
same,"computerized cognitive assessment battery: attention, working memory, episodic memory",adults with ADHD [3]; 8 mg once daily,no significant main effects
same,Wender-Reimherr ADD total score,adults with ADHD [3]; 8 mg once daily vs placebo,did not improve enough to achieve statistical significance
same,"ADHD RS-IV total score, LS mean change from baseline versus placebo","adults with ADHD [3]; 8 mg once daily, Week 2",trend to separation from placebo
same,"Wender-Reimherr subscore, attention difficulties component and disorganization component","adults with ADHD [3]; 8 mg once daily, week 4, vs placebo",statistically significant improvement
same,Cmax,clinical [4],~3 ng/mL
same,Tmax,clinical [4],> 6 h
same,steady-state concentration,clinical [5]; dose of 6 mg,about 12 ng/mL
same,steady-state concentration,clinical [5]; dose of 8 mg,about 17 ng/mL
same,concentration at 4 weeks,"clinical [5]; human, in vivo, 8 mg once daily, by week four, read-out: serum concentration plateau",15 to 20 ng/mL
same,serum concentration in the majority of patients,clinical [5]; oral dosage form containing 6-8 mg,10 to 18 ng/mL
same,circulating DHPG levels,[6],decreased circulating DHPG levels
same,serum concentration at 50% DAT site occupancy,DAT sites,5 to 6 ng/mL
same,IC50,[7],3 nM
same,"drug misuse or diversion, Abuse Potential Monitoring Plan",adults with ADHD [8]; 8 mg once daily,No evidence of drug misuse or diversion
same,Treatment-emergent adverse events (TEAEs),"adults with ADHD [8]; 8 mg once daily, 4 weeks",higher than the percentage of TEAEs in the placebo group
same,anxiety leading to discontinuation,"adults with ADHD [8]; 8 mg once daily, 4 weeks",1.8%
same,incidence of adverse events rated as severe,"adults with ADHD [8]; 8 mg once daily, 4 weeks",13.5%
same,insomnia leading to discontinuation,"adults with ADHD [8]; 8 mg once daily, 4 weeks",10.8%
same,panic attack leading to discontinuation,"adults with ADHD [8]; 8 mg once daily, 4 weeks",2.7%
same,"Drug Effects Questionnaire mean item scores, distance from the 0-point",adults with ADHD [8]; [10],≤ 5 mm
same,"Drug Effects Questionnaire, drug liking",adults with ADHD [8]; [10],No evidence of drug liking
same,withdrawal upon discontinuation of study drug,adults with ADHD [8]; after 4 weeks of 8 mg once daily,No signs or symptoms of withdrawal
COC(=O)C(c1ccccc1)C1CCCCN1 (stereo not shown) [methylphenidate],Drug Similarity Visual Analog Scale,[1]; [11],strongly identified as a stimulant
same,overall liking,[1]; [11],“liked” by subjects overall
same,"pharmacodynamic endpoints including Drug Liking Visual Analog Scale, versus placebo",[1]; [11],significant differences compared to placebo
same,secondary stimulant measures,[1]; [11],strong stimulant effects
same,pharmacokinetic half-life,[9]; in vivo,approximately 2 hours
same,time to peak concentrations,[9]; oral administration,1 to 2 h
